Measurements from PubChem BioAssay AID330 (DTP/NCI, 2004).
Inconclusive results and toxic doses are left out.

Tested on: P388 leukemia ip, CD2F1 mice, survival T/C
Test: NCI In Vivo Anticancer Drug Screen. Data for tumor model P388 Leukemia (intraperitoneal) in CD2F1 (CDF1) mice
Settings: endpoint: median survival time, higher = longer survival
How it was run: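 Mice carrying the transplanted tumor received test compound or vehicle. Survival was recorded in each group, and the value is the treated-group measurement divided by that of the vehicle-treated control group.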

NC1=NC2CC(N1)c1ccc(O)cc1O2 (stereo not drawn)
T/C (dose: 50.0 mg/kg/injection, schedule: Q01DX009 (ip), vehicle: saline): 109 % of control
T/C (dose: 100.0 mg/kg/injection, schedule: Q01DX009 (ip), vehicle: saline): 110 % of control

C=C1C(=O)C23CC1CCC2C12COC(OC(=O)CCCCCCCCCCCCCCC)C1C(C)(C)C(O)CC2OC3=O (stereo not drawn)
T/C (dose: 7.5 mg/kg/injection, schedule: Q01DX009 (ip), vehicle: saline with Tween-80): 96 % of control
T/C (dose: 15.0 mg/kg/injection, schedule: Q01DX009 (ip), vehicle: saline with Tween-80): 99 % of control
T/C (dose: 30.0 mg/kg/injection, schedule: Q01DX009 (ip), vehicle: saline with Tween-80): 97 % of control
T/C (dose: 60.0 mg/kg/injection, schedule: Q01DX009 (ip), vehicle: saline with Tween-80): 100 % of control

COc1ccc(C2NC(c3ccc(OC)cc3)C3CCCC2C3=O)cc1 (stereo not drawn)
T/C (dose: 100.0 mg/kg/injection, schedule: Q04DX003 (ip), vehicle: saline): 102 % of control
T/C (dose: 200.0 mg/kg/injection, schedule: Q04DX003 (ip), vehicle: saline): 93 % of control
T/C (dose: 400.0 mg/kg/injection, schedule: Q04DX003 (ip), vehicle: saline): 98 % of control

Cn1c(=O)c2c(c3ccccc31)Oc1oc3ccc4ccccc4c3c(=O)c1C2
T/C (dose: 12.5 mg/kg/injection, schedule: Q01DX009 (ip), vehicle: saline with Tween-80): 92 % of control
T/C (dose: 25.0 mg/kg/injection, schedule: Q01DX009 (ip), vehicle: saline with Tween-80): 90 % of control

COC(=O)/C(=C/c1ccccc1)N(C(C)=O)C(C)=O
T/C (dose: 60.0 mg/kg/injection, schedule: Q01DX005 (ip), vehicle: saline with Tween-80): 100 % of control
T/C (dose: 120.0 mg/kg/injection, schedule: Q01DX005 (ip), vehicle: saline with Tween-80): 105 % of control
T/C (dose: 240.0 mg/kg/injection, schedule: Q01DX005 (ip), vehicle: saline with Tween-80): 107 % of control

NC(=NCCSCc1ccccc1)NCCc1cnc[nH]1
T/C (dose: 100.0 mg/kg/injection, schedule: Q01DX001 (ip), vehicle: saline with Tween-80): 102 % of control
T/C (dose: 200.0 mg/kg/injection, schedule: Q01DX001 (ip), vehicle: saline with Tween-80): 102 % of control
T/C (dose: 400.0 mg/kg/injection, schedule: Q01DX001 (ip), vehicle: saline with Tween-80): 98 % of control

c1ccc(Nc2nnnn2-c2ccccc2)cc1
T/C (dose: 25.0 mg/kg/injection, schedule: Q01DX005 (ip), vehicle: saline with Tween-80): 100 % of control
T/C (dose: 50.0 mg/kg/injection, schedule: Q01DX005 (ip), vehicle: saline with Tween-80): 100 % of control
T/C (dose: 100.0 mg/kg/injection, schedule: Q01DX005 (ip), vehicle: saline with Tween-80): 104 % of control

CCOc1n[nH]c(-c2ccc(Cl)cc2Cl)n1
T/C (dose: 100.0 mg/kg/injection, schedule: Q01DX001 (ip), vehicle: Klucel (hydroxypropylcellulose) (HPC)): 102 % of control
T/C (dose: 200.0 mg/kg/injection, schedule: Q01DX001 (ip), vehicle: Klucel (hydroxypropylcellulose) (HPC)): 100 % of control
T/C (dose: 400.0 mg/kg/injection, schedule: Q01DX001 (ip), vehicle: Klucel (hydroxypropylcellulose) (HPC)): 101 % of control
